Measured values: patent publication US20240417393A1, “CERTAIN 2,5-DIAZABICYCLO[4.2.0]OCTANES AS GLP-1 RECEPTOR MODULATORS” (ASTRAZENECA AB, priority 2021, published 2024)

What was measured:
human GLP-1R receptor = molecular target: T1, human GLP-1R receptor (Homo sapiens, UniProt P43220, L260F); assay: CHOK1 GLP-1R cAMP Assay (HTRF); type: cell-based; details: CHO-K1 cells stably expressing human GLP-1R (Leu260Phe variant), 20 min at rt
T1 construct: expressed in transfected cells; host or cells: CHO-K1 (ATCC CCL-61)
Method: A cell line stably expressing the human GLP-1R receptor (NM_002062.5, including the naturally-occurring variant Leu260Phe) in a CHO-K1 (ATCC® CCL-61™) was used for assay.
GLP-1 receptor mediated agonist activity was determined in a cell-based assay measuring cyclic adenosine monophosphate (cAMP) levels in cells using Homogeneous Time-Resolved Fluorescence (HTRF) cAMP detection kit (CisBio catalog #62AM4PEC, cAMP Gs Dynamic range kit). The cAMP detection method is based on a competitive immunoassay, in which cAMP produced by the cells and cAMP labeled with the dye d2 compete for binding to a Europium-Cryptate-labeled anti-cAMP antibody. The specific HTRF signal is inversely proportional to the concentration of cAMP.
Compounds were added to individual well in 384 well-assay plates (Greiner #784076) using an Echo (LabCyte) dispenser from 10 mM stocks. Varying concentration of compounds were added to wells, and DMSO was used to normalize each well to a volume of 100 nL. A dose response curve of GLP-1(7-36)NH2 (Bachem H-6795) was included in each run. 5 μL of cAMP concentration response standards are applied in specified wells in the assay plates. Cryo-preserved cells are thawed and resuspended in assay buffer pre-heated to 37° C. (20 mM 2-[4-(2-hydroxyethyl)piperazin-1-yl]ethanesulfonic acid (HEPES) pH 7.4, 1× Hank's Balanced Salt Solution (HBSS, Life Technologies #14065) supplemented with 0.1% (w/v) bovine serum albumin (Sigma, A-7030)). Cells were centrifuged at 250*g for 5 min at rt, and resuspended in room tempered assay buffer to a final density of 0.16*10^6 cell/mL, to deliver 800 cells/well. 5 μL of assay buffer with 1 mM 3-isobutyl-1-methylxanthin (IBMX; Sigma cat I-7018) was dispensed per well in assay plates using a multidrop combi (Thermo Scientific) subsequently 5 μL of cell suspension was distributed to relevant wells in the assay using a multidrop dispenser. Assay plates were incubated 20 min at rt.
Detection reagents, Europium-Cryptate-labeled anti-cAMP antibody and cAMP labeled with the dye d2, are diluted in lysis buffer, provided by the manufacturer. 5 μL of each detection reagent is supplemented to each assay well using a multidrop dispenser. Assay plates are incubated in the dark for at least one h. The HTRF signal is measured using the HTRF module (excitation: 337 nm, emission A: 665 nm and emission B: 620 nm) in Pherastar FSX (BMG Labtech).
Raw data were converted to pM cAMP using the cAMP standard curve included in each run. Converted data were further analyzed in Genedata Screener (Genedata) and EC50 determinations were made from agonist dose-response curves analyzed with a curve fitting is program using a 4-parameter logistic dose response equation (Equation y=A+((B-A)/1+((C/x)^D))) where A is no stimulation, B is full stimulation, C is the EC50 and D is the Hill slope). The percent effect was determined relative to a saturating concentration of a full GLP-1R agonist (GLP-1(7-36)NH2 has 100% effect in this assay setup).

[1] = molecular target: T2, GLP-1R in a pancreatic insulinoma cell line (EndoC-PH1) (Homo sapiens, UniProt P43220); assay: EndoC cAMP Accumulation Assay (HTRF); type: cell-based; details: EndoC-PH1 human pancreatic beta cell line, endogenous GLP-1R, 30 min at rt
T2 construct: host or cells: EndoC-βH1 human pancreatic beta cell line
From the text: EndoC cAMP Accumulation Assay
A HTRF cAMP assay (cAMP Gs dynamic kit; CisoBio Cat #62AM4PEJ) was used to identify agonists of GLP-1R in a pancreatic insulinoma cell line (EndoC-PH1). […] EndoC-PHlcells have detectable GLP-1R messenger ribonucleic acid (mRNA) as detected by quantitative polymerase chain reaction (qPCR). […] The EndoC-PH1 cell line is a valid model of human beta cells and applicable for screenings to identify novel drug target candidates (Mol. Metab., 2018, 8, 144-157). CisBio HTRF cAMP kits are based on a competitive immunoassay using cryptate-labelled anti-cAMP antibody and d2-labeled cAMP. The detection kit is intended for the direct is quantitative determination of cAMP. The specific signal (i.e. energy transfer) is inversely proportional to the concentration of cAMP in the standard or sample. Test compounds (10 mM in DMSO) were diluted into assay buffer (HBSS (Sigma #H8264) supplemented with 25 mM HEPES (Gibco #15630, pH 7.4), 0.1% BSA (Sigma #A3059) and 0.5 mM IBMX (Sigma #I7018) included fresh on the day of the assay) into 96 well U-bottom plates (Greiner #650201). Diluted compounds were transferred to ECHO source polypropelene plates (Labcyte #P-05525) and dose response curves were dispensed acoustically using ECHO 550 into black shallow-well u-bottom 384-well HTRF Assay Plates (Corning 4514). Cryovials of EndoC-H1 (supplied at 1×10e^7 cells/vial) were used directly for screening. The cryovials and were removed from N2(1) and thawed rapidly in a 37° C. water bath. The cells were resuspended in assay buffer and centrifuged at 300 g for 5 min. Cells were resuspended in assay buffer at the appropriate concentration, typically at 12e5 cells per mL (3000 cells per well, dependent on cell batch) and 2.5 μL diluted cells were added to all wells of destination plate by Multidrop combi reagent dispenser (Thermofisher). The plates were incubated at rt for 30 min. The assay was stopped by adding 2.5 μL anti-cAMP cryptate solution to all wells and 2.5 μL cAMP-d2 solution (both diluted 1:20 in lysis buffer) to columns 1-22 by Combi drop. A volume of 2.5 μL cAMP-d2 solution was added to wells E23 to P24 and 2.5 μL lysis buffer added to wells A23 to D24 by multichannel pipette. The plates were incubated at rt for 1 h and read on an Envision plate reader using excitation wavelength of 320 nm and emission of […] and 660 nm.
Raw data from Envision is converted to % DeltaF according to the manufacturer's instructions. Dose response curves are analysed via 4-Parameter Logistical Analysis and assay plate Z’ values obtained. Samples are graphed as percentage (%) activation plots compared to […] with assay window defined by negative control as basal cell is cAMP levels and positive control are defined by maximum GIP (82.5 nM) signal. GLP-1 (7-36 amide, Bachem H-6795) dose response curve was included on all plates.

T2 sequence (P43220 24-463): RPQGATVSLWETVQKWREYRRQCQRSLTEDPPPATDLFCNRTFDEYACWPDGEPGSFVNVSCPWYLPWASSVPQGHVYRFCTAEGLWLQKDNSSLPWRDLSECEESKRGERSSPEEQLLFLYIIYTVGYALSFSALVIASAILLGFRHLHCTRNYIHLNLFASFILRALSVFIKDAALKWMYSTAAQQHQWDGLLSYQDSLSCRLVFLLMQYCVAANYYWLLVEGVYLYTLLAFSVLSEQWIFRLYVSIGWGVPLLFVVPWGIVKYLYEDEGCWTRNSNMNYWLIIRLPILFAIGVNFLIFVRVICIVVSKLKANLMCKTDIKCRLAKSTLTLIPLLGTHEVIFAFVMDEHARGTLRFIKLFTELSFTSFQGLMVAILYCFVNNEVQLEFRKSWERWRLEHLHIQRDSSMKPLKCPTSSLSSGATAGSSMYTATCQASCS
T1 sequence (P43220 24-463 L260F): as the sequence (P43220 24-463) above, with L237F counted along it

SMILES | EC50 (human GLP-1R receptor) | EC50 [1]
C[C@]1(c2ccc(Cl)cn2)Oc2cccc(N3CCN(Cc4nc5ccc(C(=O)O)cc5n4C[C@@H]4CCO4)[C@H]4CC[C@H]43)c2O1 (single isomer, unassigned) [Example 5c] | 180 nM | 1800 nM
C[C@]1(c2ccc(Cl)cn2)Oc2cccc(N3CCN(Cc4nc5ccc(C(=O)O)cc5n4C[C@@H]4CCO4)[C@H]4CC[C@H]43)c2O1 (single isomer, unassigned) [Example 5d, 2-((1R*,6S*)-5-(R*)-2-(5-Chloropyridin-2-yl)-2-methylbenzo[d][1,3]dioxol-4-yl)-2,5-diazabicyclo[4.2.0]octan-2-yl)methyl)-1-(((S)-oxetan-2-yl)methyl)-1H-benzo[d]imidazole-6-carboxylic acid] | 4.7 nM | 8.6 nM
C[C@]1(c2ccc(Cl)cc2F)Oc2cccc(N3CCN(Cc4nc5c(F)cc(C(=O)O)cc5n4C[C@@H]4CCO4)[C@H]4CC[C@H]43)c2O1 (single isomer, unassigned) [Example 9a] | 57 nM | 340 nM
C[C@]1(c2ccc(Cl)cc2F)Oc2cccc(N3CCN(Cc4nc5c(F)cc(C(=O)O)cc5n4C[C@@H]4CCO4)[C@H]4CC[C@H]43)c2O1 (single isomer, unassigned) [Example 9c, 2-(((1R*,6S*)-5-((R*)-2-(4-Chloro-2-fluorophenyl)-2-methylbenzo[d][1,3]dioxol-4-yl)-2,5-diazabicyclo[4.2.0]octan-2-yl)methyl)-4-fluoro-1-(((S)-oxetan-2-yl)methyl)-1H-benzo[d]imidazole-6-carboxylic acid] | 28 nM | 74 nM
CCn1ccnc1Cn1c(CN2CCN(c3cccc4c3O[C@@](C)(c3ccc(Cl)cn3)O4)[C@H]3CC[C@@H]32)nc2c(Cl)cc(C(=O)O)cc21 (single isomer, unassigned) [Example 10b] | 19 nM | 76 nM
CCn1ccnc1Cn1c(CN2CCN(c3cccc4c3O[C@@](C)(c3ccc(Cl)cn3)O4)[C@H]3CC[C@@H]32)nc2c(Cl)cc(C(=O)O)cc21 (single isomer, unassigned) [Example 10c] | 240 nM | 1000 nM
C[C@]1(c2ccc(Cl)cc2F)Oc2cccc(N3CCN(Cc4nc5ccc(C(=O)O)cc5n4C[C@@H]4CCO4)[C@H]4CC[C@H]43)c2O1 (single isomer, unassigned) [Example 18a, 2-(((1R*,6S*)-5-((R*)-2-(4-Chloro-2-fluorophenyl)-2-methylbenzo[d][1,3]dioxol-4-yl)-2,5-diazabicyclo[4.2.0]octan-2-yl)methyl)-1-(((S)-oxetan-2-yl)methyl)-1H-benzo[d]imidazole-6-carboxylic acid] | 0.98 nM | 3.3 nM
C[C@]1(c2ccc(Cl)cc2F)Oc2cccc(N3CCN(Cc4nc5ccc(C(=O)O)cc5n4C[C@@H]4CCO4)[C@H]4CC[C@H]43)c2O1 (single isomer, unassigned) [Example 18b, 2-((1R*,6S*)-5-(R*)-2-(4-Chloro-2-fluorophenyl)-2-methylbenzo[d][1,3]dioxol-4-yl)-2,5-diazabicyclo[4.2.0]octan-2-yl)methyl)-1-(((S)-oxetan-2-yl)methyl)-1H-benzo[d]imidazole-6-carboxylic acid] | 120 nM | 480 nM
C[C@]1(c2ccc(Cl)cc2F)Oc2cccc(N3CCN(Cc4nc5ccc(C(=O)O)cc5n4C[C@@H]4CCO4)[C@H]4CC[C@H]43)c2O1 (single isomer, unassigned) [Example 18c] | 5.8 nM | 10 nM

Now from value to compound:

EC50 (human GLP-1R receptor) | EC50 [1] | SMILES
27 nM | 72 nM | COc1cc(C(=O)O)cc2c1nc(CN1CCN(c3cccc4c3O[C@@](C)(c3ccc(Cl)cn3)O4)[C@H]3CC[C@@H]31)n2C[C@@H]1CCCO1 (single isomer, unassigned) [Example 7a, 2-(((1R*,6R*)-5-((R*)-2-(5-Chloropyridin-2-yl)-2-methylbenzo[d][1,3]dioxol-4-yl)-2,5-diazabicyclo[4.2.0]octan-2-yl)methyl)-4-methoxy-1-(((S)-tetrahydrofuran-2-yl)methyl)-1H-benzo[d]imidazole-6-carboxylic acid]
110 nM | 32 nM | COc1cc(C(=O)O)cc2c1nc(CN1CCN(c3cccc4c3O[C@@](C)(c3ccc(Cl)cn3)O4)[C@H]3CC[C@@H]31)n2C[C@@H]1CCCO1 (single isomer, unassigned) [Example 7c, 2-(((1R*,6R*)-5-((R*)-2-(5-Chloropyridin-2-yl)-2-methylbenzo[d][1,3]dioxol-4-yl)-2,5-diazabicyclo[4.2.0]octan-2-yl)methyl)-4-methoxy-1-(((S)-tetrahydrofuran-2-yl)methyl)-1H-benzo[d]imidazole-6-carboxylic acid]
6.2 nM | 6.6 nM | COc1cc(C(=O)O)cc2c1nc(CN1CCN(c3cccc4c3O[C@@](C)(c3ccc(Cl)cn3)O4)[C@@H]3CC[C@@H]31)n2C[C@@H]1CCCO1 (single isomer, unassigned) [Example 8a]
93 nM | 370 nM | COc1cc(C(=O)O)cc2c1nc(CN1CCN(c3cccc4c3O[C@@](C)(c3ccc(Cl)cn3)O4)[C@@H]3CC[C@@H]31)n2C[C@@H]1CCCO1 (single isomer, unassigned) [Example 8d]
0.81 nM | 2.2 nM | C[C@]1(c2ccc(Cl)cn2)Oc2cccc(N3CCN(Cc4nc5c(Cl)cc(C(=O)O)cc5n4C[C@@H]4CCO4)[C@H]4CC[C@H]43)c2O1 (single isomer, unassigned) [Example 20c, 4-Chloro-2-(((1R*,6S*)-5-((R*)-2-(5-chloropyridin-2-yl)-2-methylbenzo[d][1,3]dioxol-4-yl)-2,5-diazabicyclo[4.2.0]octan-2-yl)methyl)-1-(((S)-oxetan-2-yl)methyl)-1H-benzo[d]imidazole-6-carboxylic acid]
